Laboratory results: patent US20260007688A1, “SYNTHETIC ANALOGS OF CANNABINOL (CBN) FOR THE TREATMENT OF AGERELATED NEUROLOGICAL DISORDERS” (priority 2023, published 2026)

What was measured:
HT22 cells [1] = experiment: Seahorse XF mitochondrial stress test (OCR); assay type: cell-based, mouse; details: 16 hours, compared with the control cells
HT22 cells [2] = experiment: Mitochondrial reactive oxygen species measurement (MitoSOX Red); assay type: cell-based, mouse; details: 5 μM compound + 50 nM RSL3
Protocol: The assay procedure described in Liang et al. was used. Briefly, HT22 cells were seeded onto 96-well black walled plates at a density of 3,000 cells/well in DMEM supplemented with 10% FBS and 1% antibiotics. After the desired treatments, the mitochondrial superoxide ROS were detected with MitoSOX Red reagent (Ex/Em=510/580 nm). Experiments were performed according to the manufacturer's instructions. Fluorescence was measured on a SpectraMax M5 microplate reader. Data were normalized for total protein/well. Each condition was analyzed in eight wells per independent experiment (n=8). Results are presented as the percentage of the controls with vehicle alone. Results were verified by live-cell imaging under a fluorescence microscope. FIG. 14 provides the results.

MC65 cells = experiment: Intracellular amyloid toxicity assay; assay type: cell-based; details: Homo sapiens, 72 h, APP-C99 induced, day 3, MTT, read-out: Aβ toxicity EC50
Text: Accumulation of intracellular amyloid beta peptide (Aβ) is considered by many as being a primary toxic event in AD. The human nerve cell line MC65 conditionally expresses the C99 fragment of the amyloid precursor protein (APP) leading to the accumulation of intracellular AB. The MC65 cells are routinely grown in the presence of tetracycline and, following its removal, the expression of C99 is induced and the cells die within three days because of the accumulation of intracellular, toxic protein aggregates.
For the intracellular amyloid toxicity assay the procedure described in Huang et al., “Intracellular amyloid toxicity induces oxytosis/ferroptosis regulated cell death” Cell Death Dis. 11 (10) (2020) 828 was used. Briefly, MC65 cells were regularly grown in high glucose DMEM supplemented with 10% FCS and 2 μg/ml tetracycline. For the assay, cells were dissociated and plated at 1×10^5 cells per well in 24 well tissue culture plates. After overnight cultivation in growth medium, the cells were washed three times with phosphate buffered saline containing calcium and magnesium and then switched to Opti-minimal essential media (Opti-MEM, Invitrogen) in the presence (no induction) or absence (APP-C99 induced) of 2 μg/ml tetracycline in the presence or absence different concentrations of the indicated compounds. At day 3, the control cells in the absence of tetracycline were dead, and cell viability was determined by the MTT assay. Optical absorbance was measured at 570 nm on a SpectraMax M5 microplate reader. Samples were analyzed in three wells per independent experiment (n=3). Results are presented as EC50.

HT22 cells [3] = experiment: Oxytosis assay, glutamate-induced cell death, MTT viability; assay type: cell-based; details: Mus musculus, HT-22, 5 mM glutamate, 16 hours
Protocol: (§1) HT22 mouse hippocampal nerve cells were cultured in high-glucose Dulbecco's modified Eagle's medium (DMEM) (Invitrogen, Cat #11995065, Carlsbad, CA) supplemented with 10% fetal bovine serum (FBS) (Invitrogen, Carlsbad, CA) and 1% antibiotics including penicillin and streptomycin (Invitrogen Cat #10378016, Carlsbad, CA). Cell cultures were incubated at 37° C. in a fully humidified atmosphere containing 10% CO2.
The assay procedure described in Fischer et al., “Old age-associated phenotypic screening for Alzheimer's disease drug candidates identifies sterubin as a potent neuroprotective compound from Yerba santa” Redox Biol. 21 (2019) 101089 was used. Briefly, HT22 cells were seeded at 3,000 cells/well in 96-well tissue culture plates in DMEM plus 10% FBS and 1% antibiotics. After 24 hours of plating, the cells were pretreated with different concentrations of the test compounds or a vehicle control for 1 hour followed by coincubation with 5 mM glutamate to initiate the cell death cascade. After 16 hours of treatment, cell viability was measured by the 3-(4,5-dimethylthiazol-2-yl)-2,5-diphenyltetrazolium bromide (MTT) assay. Optical absorbance was measured at 570 nm on a SpectraMax M5 microplate reader. Samples were analyzed in eight to sixteen wells per independent experiment (n=8-16). Results are presented as the percentage of the controls with vehicle alone.

HT22 cells [4] = experiment: Ferroptosis assay, erastin-induced cell death, MTT viability; assay type: cell-based; details: Mus musculus, HT-22, 500 nM erastin, 16 hours
Protocol: as §1
(§2) The assay procedure described in Fischer et al. was used. Briefly, HT22 cells were seeded at 3,000 cells/well in 96-well tissue culture plates in DMEM plus 10% FBS and 1% antibiotics. After 24 hours of plating, the cells were pretreated with different concentrations of test compounds or a vehicle control for 1 hour followed by coincubation with 50-100 nM RSL3 or 500 nM erastin to induce the cell death cascade. After 16 hours of treatment, cell viability was measured by the MTT assay. Optical absorbance was measured at 570 nm on a SpectraMax M5 microplate reader. Samples were analyzed in eight to sixteen wells per independent experiment (n=8-16). Results are presented as the percentage of the controls with vehicle alone.

HT22 cells [5] = experiment: Ferroptosis assay, RSL3-induced cell death, MTT viability; assay type: cell-based; details: Mus musculus, HT-22, 50 nM RSL3, 16 hours
Protocol: as §1, §2

HT22 cells [6] = experiment: Lipid peroxidation measurement (C11-BODIPY); assay type: cell-based, mouse; details: compound + RSL3, 16 hours, p<0.0001
Protocol: The assay procedures were adapted from the procedures disclosed by Soriano-Castell et al., “Profiling the chemical nature of anti-oxytotic/ferroptotic compounds with phenotypic screening” Free Radic. Biol. Med. 177 (2021) 313-325 and Liang et al. “Cannabinol inhibits oxytosis/ferroptosis by directly targeting mitochondria independently of cannabinoid receptors” Free Radic. Biol. Med. 180 (2022) 33-51. Briefly, HT22 cells were seeded onto 96-well black walled plates at a density of 3,000 cells/well in DMEM supplemented with 10% FBS and 1% antibiotics. After the desired treatments for 16 hours, cells were labeled with 2.5 μM C11-BODIPY 581/591 (oxidized form Ex/Em=488/520 nm) at 37° C. for 2 hours. Experiments were performed according to the manufacturer's instructions. Fluorescence was measured on a SpectraMax M5 microplate reader. Data were normalized for total protein/well. Each condition was analyzed in eight wells per independent experiment (n=8). Results were verified by live-cell imaging under a fluorescence microscope.

HT22 cells [7] = experiment: Microscopic imaging of cell morphology after RSL3; assay type: cell-based, mouse; details: 5 μM compound + 50 nM RSL3, 16 hours
Text: Micrographs show the representative morphological characteristics of the cell cultures under a given condition of 8 experimental replicates. Scale bar=200 μm.
Microscopy. Brightfield, phase contrast, and fluorescence microscopic images were acquired on an IX51 inverted microscope (Olympus Corporation, Tokyo, Japan) with an INFINITY3 monochrome CCD camera (Teledyne Lumenera, Ontario, Canada). Super-resolution microscopic images were acquired on a Zeiss LSM 880 rear port laser scanning confocal and Airyscan FAST microscope (Carl-Zeiss, Oberkochen, Germany). Image processing and analysis were performed with microscope software packages ZEN Black and ImageJ/Fiji.

HT22 cells [8] = experiment: Seahorse XF real-time ATP rate assay; assay type: cell-based, mouse; details: 5 μM, 16 hours
Protocol: The assay procedure described in Liang et al., “Cannabinol inhibits oxytosis/ferroptosis by directly targeting mitochondria independently of cannabinoid receptors” Free Radic. Biol. Med. 180 (2022) 33-51 was used. Briefly, ATP production rates were assayed with a XF Real-Time ATP Rate Assay Kit using a Seahorse Xfe96 Extracellular Flux Analyzer (Seahorse Bioscience, North Billerica, MA). Complete Seahorse XF DMEM assay medium was supplemented with 10 mM glucose, 1 mM pyruvate and 2 mM L-glutamine, at pH 7.4. Mitochondrial ETC inhibitors were used at the following concentrations: 1.5 μM oligomycin and 0.5 μM of a 1:1 mixture of rotenone and antimycin A. Analyses were conducted using Wave software and XF Report Generators (Agilent Technologies). The sensor cartridge for the Xfe analyzer was hydrated overnight at 37° C. before the experiment. Data were normalized for total protein/well. Each condition was analyzed in 20-40 wells per independent experiment (n=20-40). FIGS. 12 and 13 provide the results.
For HT22 cells, 2,000 cells/well were seeded onto the Seahorse Xfe96 plates under normal culture condition as described above. The next day, cells were treated with test compounds at the desired concentrations and incubated for 16 hours. Immediately before the assay, the culture medium in the plates was replaced with complete Seahorse XF DMEM assay medium. […]

Drosophila melanogaster = experiment: Drosophila mild traumatic brain injury (mTBI) model; assay type: in vivo; details: 3.0 μM in food, 3 weeks after mTBI (10×); vehicle 70.2%

Structure (SMILES): CCCCCc1cc(O)c2c(c1)OC(C)(C)c1ccc(C)cc1-2 [CBN, Cannabinol]
- maximal and spare mitochondrial respiration (OCR) (HT22 cells [1]): partial but significant decrease
- RSL3-induced mtROS production (HT22 cells [2]): significantly suppressed
- EC50 (MC65 cells): 14 nM
- EC50 (HT22 cells [3]): 1890 nM
- EC50 (HT22 cells [4]): 2330 nM
- EC50 (HT22 cells [5]): 690 nM
- RSL3-induced increase in intracellular LPO (HT22 cells [6]): significantly suppressed
- prevention of RSL3-induced morphological deteriorations (HT22 cells [7]): effectively prevented
- total ATP production rate (HT22 cells [8]; compared to the control): slightly but significantly decreased
- increase in the OXPHOS contribution to ATP production (HT22 cells [8]; relative to the control): approximately 15%
- 3-week mortality index (MI), percentage of dead flies (Drosophila melanogaster): 60.5%
